PubChem BioAssay AID292 (DTP/NCI, 2004)
Several values for one entry are separate records, joined by “and”; a condition that tells them apart may be missing. Identical values can stand only once. Toxic doses and inconclusive results are not listed. The calls were made as follows: active = survival T/C of 150% or more; inactive = T/C below 125% in these data.

Tested on: B6C3F1 mice, ip Sarcoma M5076, median survival T/C
Experiment: NCI In Vivo Anticancer Drug Screen. Data for tumor model Sarcoma M5076 (intraperitoneal) in B6C3F1 mice
Conditions: endpoint: median survival time, higher = longer survival
How it was run: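 The readout is a ratio of survival in drug-treated animals to survival in animals given vehicle alone, taken in mice bearing a transplanted tumour line.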

[1] = dose: 25.0 mg/kg/injection, schedule: Q04DX004 (ip), vehicle: Klucel (hydroxypropylcellulose) (HPC)
[2] = dose: 50.0 mg/kg/injection, schedule: Q04DX004 (ip), vehicle: Klucel (hydroxypropylcellulose) (HPC)
[3] = dose: 100.0 mg/kg/injection, schedule: Q04DX004 (ip), vehicle: Klucel (hydroxypropylcellulose) (HPC)
[4] = dose: 200.0 mg/kg/injection, schedule: Q04DX004 (ip), vehicle: Klucel (hydroxypropylcellulose) (HPC)
[5] = dose: 400.0 mg/kg/injection, schedule: Q04DX004 (ip), vehicle: Klucel (hydroxypropylcellulose) (HPC)
[6] = dose: 50.0 mg/kg/injection, schedule: Q04DX004 (ip), vehicle: saline with Tween-80
[7] = dose: 100.0 mg/kg/injection, schedule: Q04DX004 (ip), vehicle: saline with Tween-80
[8] = dose: 200.0 mg/kg/injection, schedule: Q04DX004 (ip), vehicle: saline with Tween-80
[9] = dose: 12.5 mg/kg/injection, schedule: Q04DX004 (ip), vehicle: Klucel (hydroxypropylcellulose) (HPC)
[10] = dose: 800.0 mg/kg/injection, schedule: Q04DX004 (ip), vehicle: Klucel (hydroxypropylcellulose) (HPC)

Measured: T/C

Cc1nc(N)nc(N)c1N1CCN(c2ccc(C(=O)NC(C(=O)O)C(=O)O)cc2)CC1
inactive: dose: 3.75 mg/kg/injection, schedule: Q04DX004 (ip), vehicle: Klucel + Tween-80 104 % of control | dose: 7.5 mg/kg/injection, schedule: Q04DX004 (ip), vehicle: Klucel + Tween-80 106 % of control | dose: 15.0 mg/kg/injection, schedule: Q04DX004 (ip), vehicle: Klucel + Tween-80 103 % of control | dose: 30.0 mg/kg/injection, schedule: Q04DX004 (ip), vehicle: Klucel + Tween-80 113 % of control | dose: 60.0 mg/kg/injection, schedule: Q04DX004 (ip), vehicle: Klucel + Tween-80 121 % of control

CC1=CC(C)(C)Nc2ccc(OC(=O)/C=C(C)/C=C/C=C(C)/C=C/C3=C(C)CCCC3(C)C)cc21
inactive: dose: 37.5 mg/kg/injection, schedule: Q04DX004 (ip), vehicle: saline with Tween-80 96 % of control | dose: 75.0 mg/kg/injection, schedule: Q04DX004 (ip), vehicle: saline with Tween-80 98 % of control | dose: 150.0 mg/kg/injection, schedule: Q04DX004 (ip), vehicle: saline with Tween-80 98 % of control | dose: 300.0 mg/kg/injection, schedule: Q04DX004 (ip), vehicle: saline with Tween-80 89 % of control | dose: 600.0 mg/kg/injection, schedule: Q04DX004 (ip), vehicle: saline with Tween-80 89 % of control

O=C(Nc1ccccc1)C1C(=O)C(=O)N(c2ccccc2)C1=O (stereo not given)
inactive: [1] 99 % of control | [2] 90 % of control | [3] 92 % of control | [4] 95 % of control | [5] 95 % of control

COc1cc(NCc2ccc3nc(N)nc(N)c3c2C)cc(OC)c1OC
active: dose: 30.0 mg/kg/injection, schedule: Q04DX004 (ip), vehicle: Klucel (hydroxypropylcellulose) (HPC) 152 % of control and 154 % of control | dose: 60.0 mg/kg/injection, schedule: Q04DX004 (ip), vehicle: Klucel (hydroxypropylcellulose) (HPC) 162 % of control and 172 % of control and 179 % of control | dose: 120.0 mg/kg/injection, schedule: Q04DX004 (ip), vehicle: Klucel (hydroxypropylcellulose) (HPC) 167 % of control
inactive: dose: 7.5 mg/kg/injection, schedule: Q04DX004 (ip), vehicle: Klucel (hydroxypropylcellulose) (HPC) 117 % of control and 122 % of control

COc1ccccc1N=C1SCC(=O)N1Cc1ccco1
inactive: [6] 110 % of control | [7] 122 % of control | [8] 101 % of control | dose: 400.0 mg/kg/injection, schedule: Q04DX004 (ip), vehicle: saline with Tween-80 98 % of control | dose: 800.0 mg/kg/injection, schedule: Q04DX004 (ip), vehicle: saline with Tween-80 102 % of control

COc1cc(C2CC(C)(O)Oc3cc4c(cc32)OCO4)cc(OC)c1OC (stereo not given)
inactive: [6] 115 % of control

O=NN(CCCl)C(=O)NCCCl
active: dose: 6.0 mg/kg/injection, schedule: Q04DX004 (ip), vehicle: saline + alcohol 163 % of control and 164 % of control | dose: 12.0 mg/kg/injection, schedule: Q04DX004 (ip), vehicle: saline + alcohol 224 % of control and 292 % of control | dose: 24.0 mg/kg/injection, schedule: Q04DX004 (ip), vehicle: saline + alcohol 248 % of control and 292 % of control | dose: 48.0 mg/kg/injection, schedule: Q04DX004 (ip), vehicle: saline + alcohol 244 % of control
inactive: dose: 1.5 mg/kg/injection, schedule: Q04DX004 (ip), vehicle: saline + alcohol 116 % of control

CCCCCCN1CCN(Cc2ccc(N(CC)CC)cc2)C(=O)C1=O
inactive: [1] 95 % of control | [2] 107 % of control

CCOC(=O)c1cc(-c2ccccc2)c(OC)c(=O)nc1-c1ccccc1
inactive: [6] 89 % of control

Cc1cc(C(F)(F)F)nc2nc3ccccc3n12
inactive: dose: 37.5 mg/kg/injection, schedule: Q04DX004 (ip), vehicle: Klucel (hydroxypropylcellulose) (HPC) 100 % of control | dose: 75.0 mg/kg/injection, schedule: Q04DX004 (ip), vehicle: Klucel (hydroxypropylcellulose) (HPC) 95 % of control | dose: 150.0 mg/kg/injection, schedule: Q04DX004 (ip), vehicle: Klucel (hydroxypropylcellulose) (HPC) 96 % of control | dose: 300.0 mg/kg/injection, schedule: Q04DX004 (ip), vehicle: Klucel (hydroxypropylcellulose) (HPC) 95 % of control

COc1cc2c(cc1OC)[C@@H]1C(=O)c3ccc4c(c3O[C@@H]1CO2)C[C@H](C(C)C)O4
inactive: [9] 104 % of control | [1] 104 % of control | [2] 104 % of control

CCC/C=C/C=C/C(=O)OC1/C(=C/C(=O)OC)CC2CC(C(C)O)OC(=O)CC(O)CC3CC(OC(C)=O)C(C)(C)C(O)(CC4C/C(=C/C(=O)OC)CC(/C=C/C(C)(C)C1(O)O2)O4)O3 (stereo not given)
inactive: dose: 10.0 micrograms/kg/injection, schedule: Q01DX009 (ip), vehicle: saline 102 % of control | dose: 20.0 micrograms/kg/injection, schedule: Q01DX009 (ip), vehicle: saline 104 % of control | dose: 40.0 micrograms/kg/injection, schedule: Q01DX009 (ip), vehicle: saline 107 % of control | dose: 80.0 micrograms/kg/injection, schedule: Q01DX009 (ip), vehicle: saline 109 % of control

S=c1sc2ccccc2n1CN1CCOCC1
inactive: dose: 25.0 mg/kg/injection, schedule: Q04DX004 (ip), vehicle: saline with Tween-80 105 % of control and 107 % of control | [6] 95 % of control and 111 % of control | [7] 90 % of control and 104 % of control | [8] 96 % of control and 97 % of control

N#CC1C(=O)NC(=O)C(C#N)C1c1ccc(Cl)cc1Cl (stereo not given)
inactive: [2] 93 % of control | [3] 95 % of control | [4] 100 % of control | [5] 96 % of control

Cc1ccccc1C1C(C#N)C(=O)NC(=O)C1C#N (stereo not given)
inactive: [2] 102 % of control | [3] 105 % of control | [4] 102 % of control | [5] 98 % of control

COC(=O)N1C2CCCCC2=NN(c2ccccc2)N1C(=O)OC (stereo not given)
inactive: [2] 96 % of control | [3] 101 % of control | [4] 99 % of control | [5] 95 % of control | [10] 100 % of control

O=C(Nc1cccnc1)c1ccc([N+](=O)[O-])s1
inactive: dose: 3.0 mg/kg/injection, schedule: Q04DX004 (ip), vehicle: saline 102 % of control | dose: 6.0 mg/kg/injection, schedule: Q04DX004 (ip), vehicle: saline 97 % of control | dose: 12.0 mg/kg/injection, schedule: Q04DX004 (ip), vehicle: saline 96 % of control | dose: 24.0 mg/kg/injection, schedule: Q04DX004 (ip), vehicle: saline 87 % of control | dose: 48.0 mg/kg/injection, schedule: Q04DX004 (ip), vehicle: saline 89 % of control

OC(C1CO1)C(O)C1CO1 (stereo not given)
active: dose: 2.0 mg/kg/injection, schedule: Q04DX005 (ip), vehicle: saline 169 % of control | dose: 4.0 mg/kg/injection, schedule: Q04DX005 (ip), vehicle: saline 287 % of control | dose: 8.0 mg/kg/injection, schedule: Q04DX005 (ip), vehicle: saline 319 % of control
inactive: dose: 1.0 mg/kg/injection, schedule: Q04DX005 (ip), vehicle: saline 123 % of control

Nc1ncc(C2OC(CO)C(O)C2O)c(=O)[nH]1 (stereo not given)
inactive: dose: 25.0 mg/kg/injection, schedule: Q04DX004 (ip), vehicle: saline 106 % of control | dose: 50.0 mg/kg/injection, schedule: Q04DX004 (ip), vehicle: saline 104 % of control | dose: 100.0 mg/kg/injection, schedule: Q04DX004 (ip), vehicle: saline 103 % of control | dose: 200.0 mg/kg/injection, schedule: Q04DX004 (ip), vehicle: saline 96 % of control | dose: 400.0 mg/kg/injection, schedule: Q04DX004 (ip), vehicle: saline 100 % of control

COc1ccc(C(N)=O)cc1N=NN(C)C
inactive: [9] 118 % of control and 121 % of control
active: [3] 154 % of control and 179 % of control

Cc1c(-c2ccc(C3CCCCC3)cc2)nc2ccc(F)cc2c1C(=O)O
inactive: [2] 114 % of control and 121 % of control | [3] 118 % of control and 122 % of control
active: [10] 152 % of control

CC(C)[C@](O)(C(=O)OCC1=CC[N+]2([O-])CC[C@@H](O)[C@@H]12)[C@H](C)O (stereo not given in full)
inactive: dose: 75.0 mg/kg/injection, schedule: Q04DX005 (ip), vehicle: saline 111 % of control | dose: 112.5 mg/kg/injection, schedule: Q04DX004 (ip), vehicle: water 122 % of control | dose: 150.0 mg/kg/injection, schedule: Q04DX005 (ip), vehicle: saline 108 % of control
active: dose: 225.0 mg/kg/injection, schedule: Q04DX004 (ip), vehicle: water 150 % of control | dose: 300.0 mg/kg/injection, schedule: Q04DX005 (ip), vehicle: saline 153 % of control | dose: 450.0 mg/kg/injection, schedule: Q04DX004 (ip), vehicle: water 199 % of control | dose: 600.0 mg/kg/injection, schedule: Q04DX005 (ip), vehicle: saline 230 % of control | dose: 900.0 mg/kg/injection, schedule: Q04DX004 (ip), vehicle: water 208 % of control | dose: 1200.0 mg/kg/injection, schedule: Q04DX005 (ip), vehicle: saline 230 % of control | dose: 1800.0 mg/kg/injection, schedule: Q04DX004 (ip), vehicle: water 291 % of control
